Measurements: patent US9783537B2, “3-(4-ethylnylphenyl) pyridopyrimidinone compounds and process for preparation thereof useful as potential anticancer agents” (Council of Scientific & Industrial Research, priority 2013, dated 2017)
Read-outs that look alike come from different tables or passages of the source.

Experiments:
[1] = test system: six leukemia cancer cell lines (CCRF-CEM, HL-60, K-562, MOLT-4, SR and RPMI-8226); assay: in vitro anticancer activity, leukemia panel; format: cell-based; details: Homo sapiens, exposure at least 48 h, read-out: GI50, range over panel
[2] = test system: SNB-19; assay: SRB 48 h growth assay, CNS SNB-19; format: cell-based, human; details: SNB-19, CNS
[3] = test system: six CNS cancer cell line (SF-268, SF-295, SF-539, SNB-19, SNB-75 and U251); assay: in vitro anticancer activity, CNS panel; format: cell-based; details: Homo sapiens; six CNS cancer cell lines, exposure at least 48 h; read-out: GI50, range over panel
[4] = test system: A549/ATCC; assay: SRB 48 h growth assay, Non-small Cell Lung A549/ATCC; format: cell-based, human
[5] = test system: SW-620; assay: SRB 48 h growth assay, Colon SW-620; format: cell-based, human; details: SW-620, Colon
[6] = test system: UACC-257; assay: SRB 48 h growth assay, Melanoma UACC-257; format: cell-based, human; details: UACC-257, Melanoma
[7] = test system: TK-10; assay: SRB 48 h growth assay, Renal TK-10; format: cell-based, human; details: TK-10, Renal
[8] = test system: MDA-MB-468; assay: SRB 48 h growth assay, Breast MDA-MB-468; format: cell-based, human; details: MDA-MB-468, Breast
[9] = test system: BT-549; assay: SRB 48 h growth assay, Breast BT-549; format: cell-based, human; details: BT-549, Breast
[10] = test system: CCRF-CEM; assay: SRB 48 h growth assay, Leukemia CCRF-CEM; format: cell-based, human
[11] = test system: DU-145; assay: SRB 48 h growth assay, Prostate DU-145; format: cell-based, human; details: DU-145, Prostate
[12] = test system: RXF393; assay: SRB 48 h growth assay, Renal RXF393; format: cell-based, human
[13] = test system: OVCAR-8; assay: SRB 48 h growth assay, Ovarian OVCAR-8; format: cell-based, human; details: OVCAR-8, Ovarian
[14] = test system: six breast cancer cell line (MCF-7, MDA-MB-231/ATCC, HS 578T, TD-47D, MDA-MB-468 and BT-549); assay: in vitro anticancer activity, breast panel; format: cell-based; details: Homo sapiens; six breast cancer cell lines, exposure at least 48 h; read-out: GI50, range over panel
[15] = test system: HS578T; assay: SRB 48 h growth assay, Breast HS578T; format: cell-based, human
[16] = test system: NCI-H522; assay: SRB 48 h growth assay, Non-small Cell Lung NCI-H522; format: cell-based, human
[17] = test system: SNB-75; assay: SRB 48 h growth assay, CNS SNB-75; format: cell-based, human; details: SNB-75, CNS
[18] = in vitro anticancer activity, melanoma panel; format: cell-based; details: Homo sapiens; nine melanoma cell lines, exposure at least 48 h; read-out: GI50, range over panel
[19] = test system: MDA-MB-435; assay: SRB 48 h growth assay, Melanoma MDA-MB-435; format: cell-based, human; details: MDA-MB-435, Melanoma
[20] = test system: PC-3; assay: SRB 48 h growth assay, Prostate PC-3; format: cell-based, human; details: PC-3, Prostate
[21] = test system: NCI-H226; assay: SRB 48 h growth assay, Non-small Cell Lung NCI-H226; format: cell-based, human
[22] = test system: SK-MEL-5; assay: SRB 48 h growth assay, Melanoma SK-MEL-5; format: cell-based, human; details: SK-MEL-5, Melanoma
[23] = test system: HOP-92; assay: SRB 48 h growth assay, Non-small Cell Lung HOP-92; format: cell-based, human; details: HOP-92, Non-small Cell Lung
[24] = test system: ACHN; assay: SRB 48 h growth assay, Renal ACHN; format: cell-based, human
[25] = test system: seven ovarian cancer cell lines (IGROV1, OVCAR-3, OVCAR-4, OVCAR-5, OVCAR-8, NCI/ADR-RES and SK-OV-3); assay: in vitro anticancer activity, ovarian panel; format: cell-based; details: Homo sapiens, exposure at least 48 h, read-out: GI50, range over panel
[26] = test system: K-562; assay: SRB 48 h growth assay, Leukemia K-562; format: cell-based, human
[27] = Homo sapiens, read-out: Growth Inhibition GI50
[28] = Homo sapiens, read-out: Log10 GI50 (converted)
[29] = Homo sapiens, read-out: Log10 LC50 (converted)

SMILES: C#Cc1ccc(-n2c(/C=C/c3ccc(O)cc3)nc3ncccc3c2=O)cc1 [4b, (E)-3-(4-Ethynylphenyl)-2-(4-hydroxystyryl)pyrido[2,3-d]pyrimidin-4(3H)-one]
- GI50 [1]: 3.58 to 5.55 µM
- GI50 [2, 27]: 6.26 µM
- GI50 [2, 28]: 6.31 µM
- CC50 [2, 29]: > 100 µM
- Log10 TGI50 [2]: >−4.00
- GI50 [3]: 3.88 to 16.2 µM
- Log10 TGI50 [4]: >−4.00
- GI50 [4, 27]: 4.74 µM
- GI50 [4, 28]: 4.79 µM
- CC50 [4, 29]: > 100 µM
- GI50 [5, 27]: 3.55 µM
- GI50 [5, 28]: 3.55 µM
- CC50 [5, 29]: > 100 µM
- Log10 TGI50 [5]: >−4.00
- GI50 [6, 27]: 6.3 µM
- GI50 [6, 28]: 6.31 µM
- CC50 [6, 29]: > 100 µM
- Log10 TGI50 [6]: >−4.00
- GI50 [7, 27]: 8.78 µM
- GI50 [7, 28]: 8.71 µM
- CC50 [7, 29]: > 100 µM
- Log10 TGI50 [7]: −4.16
- GI50 [8, 27]: 2310 nM
- GI50 [8, 28]: 2290 nM
- CC50 [8, 29]: > 100 µM
- Log10 TGI50 [8]: −5.15
- Log10 TGI50 [9]: −4.06
- GI50 [9, 27]: 7.51 µM
- GI50 [9, 28]: 7.59 µM
- CC50 [9, 29]: > 100 µM
- Log10 TGI50 [10]: >−4.00
- CC50 ([10]; Homo sapiens, CCKF-CEM, read-out: Log10 LC50 (converted)): > 100 µM
- GI50 [10, 27]: 3.3 µM
- GI50 [10, 28]: 3.31 µM
- Log10 TGI50 [11]: −4.12
- GI50 [11, 27]: 4.1 µM
- GI50 [11, 28]: 4.07 µM
- CC50 [11, 29]: > 100 µM
- Log10 TGI50 [12]: −5.36
- GI50 ([12]; Homo sapiens, RXF 393, read-out: Growth Inhibition GI50): 1480 nM
- GI50 ([12]; Homo sapiens, RXF 393, read-out: Log10 GI50 (converted)): 1480 nM
- CC50 ([12]; Homo sapiens, RXF 393, read-out: Log10 LC50 (converted)): > 72.4 µM
- GI50 [13, 27]: 4.39 µM
- GI50 [13, 28]: 4.37 µM
- CC50 [13, 29]: > 100 µM
- Log10 TGI50 [13]: −4.33
- GI50 [14]: 2.83 to 5.85 µM
- Log10 TGI50 [15]: −4.52
- GI50 ([15]; Homo sapiens, Hs-578T, read-out: Growth Inhibition GI50): 3.24 µM
- GI50 ([15]; Homo sapiens, Hs-578T, read-out: Log10 GI50 (converted)): 3.24 µM
- CC50 ([15]; Homo sapiens, Hs-578T, read-out: Log10 LC50 (converted)): > 100 µM
- Log10 TGI50 [16]: −5.22
- GI50 [16, 27]: 2000 nM
- GI50 [16, 28]: 2000 nM
- CC50 [16, 29]: > 100 µM
- GI50 [17, 27]: 940 nM
- GI50 [17, 28]: 955 nM
- CC50 [17, 29]: > 100 µM
- Log10 TGI50 [17]: −4.49
- GI50 [18]: 1.78 to 34.6 µM
- GI50 [19, 27]: 1600 nM
- GI50 [19, 28]: 1580 nM
- CC50 [19, 29]: > 100 µM
- Log10 TGI50 [19]: −5.39
- GI50 [20, 27]: 3.87 µM
- GI50 [20, 28]: 3.89 µM
- CC50 [20, 29]: > 100 µM
- Log10 TGI50 [20]: −4.32
- Log10 TGI50 [21]: −4.88
- GI50 [21, 27]: 2580 nM
- GI50 [21, 28]: 2570 nM
- LC50 [21, 29]: > 100 µM
- GI50 [22, 27]: 2240 nM
- GI50 [22, 28]: 2240 nM
- CC50 [22, 29]: > 100 µM
- Log10 TGI50 [22]: −5.13
- Log10 TGI50 [23]: −4.77
- GI50 [23, 27]: 1800 nM
- GI50 [23, 28]: 1820 nM
- CC50 [23, 29]: > 100 µM
- Log10 TGI50 [24]: >−4.00
- GI50 [24, 27]: 6.31 µM
- GI50 [24, 28]: 6.31 µM
- CC50 [24, 29]: > 100 µM
- GI50 [25]: 2.33 to 9.67 µM
- GI50 ([26]; Homo sapiens, K562, K-562, Leukemia, read-out: Growth Inhibition GI50): 4.33 µM
- GI50 ([26]; Homo sapiens, K562, K-562, Leukemia, read-out: Log10 GI50 (converted)): 4.37 µM
- CC50 ([26]; Homo sapiens, K562, K-562, Leukemia, read-out: Log10 LC50 (converted)): > 100 µM
- Log10 TGI50 ([26]; K-562, Leukemia): >−4.00
